Patent US9615577B2, “Herbicidally active cyclic dione compounds, or derivatives therefor, substituted by a phenyl which has an alkynyl-containing substituent” (Syngenta Limited, priority 2012, dated 2017)

What was measured:
Type in all cases: in vivo
[1] = test system: Abutilon theophasti Medik. (ABUTH); assay: Test 1A glasshouse assay for herbicidal activity, pre-emergence; conditions: 312 h, 250 g/ha, evaluated after 13 days, read-out: percentage phytotoxicity ABUTH
Procedure: (§1) Seeds of a variety of test species were sown in standard soil in pots. After cultivation for one day (pre-emergence) or after 8 days cultivation (post-emergence) under controlled conditions in a glasshouse (at 24/16° C., day/night; 14 hours light; 65% humidity), the plants were sprayed with an aqueous spray solution derived from the formulation of the technical active ingredient in acetone/I water (50:50) solution containing 0.5% Tween 20 (polyoxyethelyene sorbitan monolaurate, CAS RN 9005-64-5). The test plants were then grown in a glasshouse under controlled conditions in a glasshouse (at 24/16° C., day/night; 14 hours light; 65% humidity) and watered twice daily. After 13 days for pre and post-emergence, the test was evaluated visually for percentage phytotoxicity to the plant (where 100=total damage to plant; 0=no damage to plant).
(§2) Alopecurus myosuroides (ALOMY), Setaria faberi (SETFA), Echinochloa crus-galli (ECHCG), Solanum nigrum (SOLNI), Amaranthus retroflexus (AMARE), Ipomoea hederacea (IPOHE), and Abutilon theophasti Medik. (ABUTH, common English name “velvetleaf”). Of these, Alopecurus myosuroides (ALOMY), Setaria faberi (SETFA), and Echinochloa crus-galli (ECHCG) are grassy monocotyledonous weeds.

[2] = test system: Alopecurus myosuroides (ALOMY); assay: as above; conditions: 312 h, 250 g/ha, evaluated after 13 days, read-out: percentage phytotoxicity ALOMY
Procedure: as §1, §2

[3] = test system: Amaranthus retroflexus (AMARE); assay: as above; conditions: 312 h, 250 g/ha, evaluated after 13 days, read-out: percentage phytotoxicity AMARE
Procedure: as §1, §2

[4] = test system: Echinochloa crus-galli (ECHCG); assay: as above; conditions: 312 h, 250 g/ha, evaluated after 13 days, read-out: percentage phytotoxicity ECHCG
Procedure: as §1, §2

Setaria faberi (SETFA) [5] = assay: as above; conditions: 312 h, 250 g/ha, evaluated after 13 days, read-out: percentage phytotoxicity SETFA
Procedure: as §1, §2

[6] = test system: Abutilon theophasti Medik. (ABUTH); assay: Test 1A glasshouse assay for herbicidal activity, post-emergence; conditions: 312 h, 250 g/ha, evaluated after 13 days, read-out: percentage phytotoxicity ABUTH
Procedure: as §1, §2

[7] = test system: Alopecurus myosuroides (ALOMY); assay: as above; conditions: 312 h, 250 g/ha, evaluated after 13 days, read-out: percentage phytotoxicity ALOMY
Procedure: as §1, §2

[8] = test system: Amaranthus retroflexus (AMARE); assay: as above; conditions: 312 h, 250 g/ha, evaluated after 13 days, read-out: percentage phytotoxicity AMARE
Procedure: as §1, §2

[9] = test system: Echinochloa crus-galli (ECHCG); assay: as above; conditions: 312 h, 250 g/ha, evaluated after 13 days, read-out: percentage phytotoxicity ECHCG
Procedure: as §1, §2

Setaria faberi (SETFA) [10] = assay: as above; conditions: 312 h, 250 g/ha, evaluated after 13 days, read-out: percentage phytotoxicity SETFA
Procedure: as §1, §2

[11] = test system: Alopecurus myosuroides (ALOMY); assay: Biological Example 2 comparative herbicidal data, post-emergence glasshouse screen; conditions: 312 h, read-out: Post-emergence herbicidal activities (percentage phytotoxicity) ALOMY
Procedure: as §1
(§3) Comparative herbicidal data is given below for certain exemplified compounds with 4-(prop-1-ynyl)-2,6-dimethylphenyl or 4-(chloroethynyl)-2,6-dimethylphenyl headgroups, compared to the corresponding compounds with either 4-ethynyl-2,6-dimethylphenyl or 2,4,6-trimethylphenyl headgroups, as follows. Comparative herbicidal data is also given below for certain exemplified compounds with 4-(prop-1-ynyl)-2-chloro-6-methoxyphenyl headgroups, compared to the corresponding compounds with 4-ethynyl-2-chloro-6-methoxyphenyl or 4-(but-1-ynyl)-2-chloro-6-methoxyphenyl or 4-methyl-2-chloro-6-methoxyphenyl or 2-chloro-6-methoxyphenyl headgroups, as follows.
(§4) Except where specified otherwise, the glasshouse screen for herbicidal activity is substantially the same as that presented in Biological Example 1A (Test 1A) hereinabove. The weed abbreviations are as defined in Biological Example 1A.

[12] = test system: Echinochloa crus-galli (ECHCG); assay: as above; conditions: 312 h, read-out: Post-emergence herbicidal activities (percentage phytotoxicity) ECHCG
Procedure: as §1, §3, §4

Setaria faberi (SETFA) [13] = assay: as above; conditions: 312 h, 8 g/ha application rate, read-out: Post-emergence herbicidal activities (percentage phytotoxicity) SETFA
Procedure: as §1, §3, §4

[14] = test system: Amarantus retroflexus (AMARE); assay: as above; conditions: Amaranthus retroflexus, read-out: Post-emergence herbicidal activities (percentage phytotoxicity) AMARE
[15] = test system: Abutilon theophasti Medik. (ABUTH); assay: as above; conditions: read-out: Post-emergence herbicidal activities (percentage phytotoxicity) ABUTH

Compound C#Cc1cc(Cl)c(C2C(=O)C3CCC(C3)C2=O)c(OC)c1 (stereo not shown) [Compound B-3, 3-(2-Chloro-4-ethynyl-6-methoxy-phenyl)bicyclo[3.2.1]octane-2,4-dione] has a pest or weed control at 250 g/ha [1] of 100%, a pest or weed control at 250 g/ha [2] of 80% and a pest or weed control at 250 g/ha [3] of 90%. The pest or weed control at 250 g/ha [4] was 90%, the pest or weed control at 250 g/ha (Setaria faberi (SETFA) [5]) was 100% and the pest or weed control at 250 g/ha [6] was 0%. For the same compound, the pest or weed control at 250 g/ha [7] was 80%, the pest or weed control at 250 g/ha [8] was 0% and the pest or weed control at 250 g/ha [9] was 100%. It also gave a pest or weed control at 250 g/ha (Setaria faberi (SETFA) [10]) of 90%, a pest or weed control at 8 g/ha ([11]; 8 g/ha application rate) of 0% and a pest or weed control at 30 g/ha ([11]; 30 g/ha application rate) of 30%. It also gave a pest or weed control at 8 g/ha ([12]; 8 g/ha application rate) of 20%, a pest or weed control at 30 g/ha ([12]; 30 g/ha application rate) of 70% and a pest or weed control at 8 g/ha (Setaria faberi (SETFA) [13]) of 20%. For the same compound, the pest or weed control at 8 g/ha ([14]; 8 g/ha application rate) was 0%, the pest or weed control at 30 g/ha ([14]; 30 g/ha application rate) was 0% and the pest or weed control at 8 g/ha ([15]; 8 g/ha application rate) was 0%. For the same compound, the pest or weed control at 30 g/ha ([15]; 30 g/ha application rate) was 0%.
